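Following 48 hours of exposure in 96-well plates, responses at five concentrations were used to interpolate endpoints linearly. The concentration for 50% growth inhibition is given as GI50.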 Activity calls are given as the source filed them. No stated cut-off is given here; in the data, active = GI50 up to about 1.1 µM and inactive = higher.
How the values were obtained:
Test in all cases: NCI-60 cell line screen, 48 h
U-251 = tested on: U-251
Malme-3M = tested on: Malme-3M
EKVX = tested on: EKVX
SK-OV-3 = tested on: SK-OV-3
SW-620 = tested on: SW-620
KM12 = tested on: KM12
NCI-H460 = tested on: NCI-H460
M14 = tested on: M14
786-0 = tested on: 786-0
SNB-19 = tested on: SNB-19
K562 = tested on: K562
A549 = tested on: A549
NCI/ADR-RES = tested on: NCI/ADR-RES
SNB-75 = tested on: SNB-75
MCF7 = tested on: MCF7
MOLT-4 = tested on: MOLT-4
IGROV-1 = tested on: IGROV-1
OVCAR-8 = tested on: OVCAR-8
SN12C = tested on: SN12C
BT-549 = tested on: BT-549

Measured: GI50

COC(=O)C1=C(C)NC(=O)N2[C@@H](CCOCc3ccccc3)CC[C@@H]12
inactive: U-251 > 50 µM | Malme-3M > 50 µM | EKVX > 50 µM | SK-OV-3 > 50 µM | SW-620 > 50 µM | KM12 > 50 µM | NCI-H460 > 50 µM | M14 > 50 µM | 786-0 > 50 µM | SNB-19 > 50 µM | K562 > 50 µM | A549 > 50 µM | NCI/ADR-RES > 50 µM | SNB-75 25 µM | MCF7 > 50 µM | MOLT-4 47.9 µM | IGROV-1 > 50 µM | OVCAR-8 > 50 µM

CC(C)(C)[Si](C)(C)OCC1CCC(n2cnc3c(NC(=O)c4ccccc4)ncnc32)O1 (centres undefined)
inactive: U-251 18.2 µM | Malme-3M 19.9 µM | EKVX 17.6 µM | SK-OV-3 20 µM | SW-620 20 µM | KM12 17.3 µM | NCI-H460 18 µM | M14 16.7 µM | 786-0 17.5 µM | SNB-19 18.9 µM | K562 18.7 µM | A549 19 µM | SN12C 18 µM | NCI/ADR-RES 16.6 µM | SNB-75 10.4 µM | MCF7 23.9 µM | MOLT-4 18.2 µM | IGROV-1 18.1 µM | OVCAR-8 28.5 µM

c1ccc2c(c1)c1c(n2CCOCCN2CCCCC2)CCCC1
inactive: U-251 16.9 µM | Malme-3M 13.1 µM | EKVX 16.9 µM | SK-OV-3 18.7 µM | SW-620 17.3 µM | KM12 13 µM | NCI-H460 11.9 µM | M14 12.8 µM | 786-0 13.4 µM | K562 6.18 µM | A549 15.1 µM | SN12C 13.7 µM | NCI/ADR-RES 10.1 µM | SNB-75 11.6 µM | MCF7 13.7 µM | MOLT-4 10.5 µM | IGROV-1 13.9 µM | OVCAR-8 14 µM

O=C1C2C3C=CC(C2C(=O)N1CN1CCSCC1)C1C2C(=O)N(CN4CCSCC4)C(=O)C2C31 (centres undefined)
inactive: U-251 > 72.1 µM | Malme-3M > 100 µM | EKVX > 100 µM | SK-OV-3 > 100 µM | SW-620 31.7 µM | KM12 > 100 µM | NCI-H460 31.2 µM | M14 > 100 µM | 786-0 > 52.4 µM | SNB-19 > 100 µM | K562 > 100 µM | A549 62.1 µM | SN12C 97.9 µM | SNB-75 45.3 µM | MOLT-4 > 78.5 µM | IGROV-1 > 100 µM | OVCAR-8 > 94.2 µM

CCOc1ccc(NC(=O)C2=C(C)NC(C)=C(C(=O)Nc3ccc(OCC)cc3)C2c2ccc(O)c(OC)c2)cc1
inactive: U-251 55.6 µM | Malme-3M 64.1 µM | EKVX > 100 µM | SK-OV-3 > 100 µM | SW-620 > 100 µM | KM12 47.9 µM | NCI-H460 80.4 µM | M14 > 100 µM | 786-0 48.9 µM | SNB-19 > 100 µM | K562 40.8 µM | A549 > 100 µM | SN12C 86.3 µM | SNB-75 14.3 µM | MOLT-4 28.1 µM | IGROV-1 > 100 µM | OVCAR-8 87.3 µM

N=c1oc2ccc(Cl)cc2cc1C(N)=O
inactive: U-251 40.4 µM | Malme-3M 17.6 µM | SK-OV-3 > 100 µM | SW-620 45.9 µM | KM12 24.2 µM | NCI-H460 30.8 µM | M14 27.5 µM | 786-0 24.8 µM | SNB-19 26.7 µM | K562 > 100 µM | A549 42.6 µM | SN12C 18.8 µM | NCI/ADR-RES 34.4 µM | SNB-75 26.1 µM | BT-549 35.2 µM | MOLT-4 > 100 µM | IGROV-1 21.4 µM | OVCAR-8 33.2 µM

CCOP(=O)(OCC)C1CCCCOC1=O (centres undefined)
inactive: U-251 > 100 µM | Malme-3M > 100 µM | EKVX > 100 µM | SK-OV-3 > 100 µM | SW-620 > 100 µM | KM12 > 100 µM | NCI-H460 51.2 µM | M14 > 100 µM | 786-0 > 100 µM | SNB-19 > 100 µM | K562 44 µM | A549 > 100 µM | SN12C 95.9 µM | SNB-75 > 100 µM | MOLT-4 33 µM | IGROV-1 > 100 µM | OVCAR-8 > 100 µM
